Test system: glutathione peroxidase (GSH-PX)
Assay: Glutathione peroxidase (GSH-PX) activity in keratinocytes
Assay type: cell-based, human
Conditions: 50 nM Se (sodium selenite 50 nM; selenium yeast 3.95 μg/ml), control cells
Procedure: Cultures were maintained at 37° C. in a humidified 5% CO2 atmosphere.

## O=[Se](O)O [sodium selenite]
  GSH-PX activity: 91.44±10.37 mU/mg protein
48 h
  induction of GSH-PX activity, fold increase vs controls: 3.365 fold

From US6835401B2, “Method of treating diseases caused by over-production of free-radicals” (Pharmaton SA, priority 2000, dated 2004)
